Experiments:
hTERT expression [1] = test: SEAP assay in hTERT-BJ1-PTERT(3.4)-SEAP cells; type: cell-based; settings: Homo sapiens, BJ1, read-out: SEAP (Inhibition μM ± SD); for activity at 1 µM: compound concentration 1 μM; for activity at 10 µM: compound concentration 10 μM; for activity at 100 µM: compound concentration 100 μM
Method: A total of 2×10^3 hTERT-BJ1-PTERT(3.4)-SEAP cells were seeded in the 96-well cell culture plate, and incubated with DMEM (GIBCO®)/glucose mixture and Medium 199 (GIBCO®)/10% FBS/1 mM sodium pyruvate (GIBCO®)/4 mM L-glutamine (GIBCO®) mixture at a ratio of 4:1 at 37° C. for 24 hours. When the cells were attached in the bottom of the well, the seriously-diluted compounds with different concentrations ([…]) were treated with the cells for 48 hours, and the PTERT(3.4)-SEAP cells without drug treatment were being the control. After 48 hours of drug treatment, the cultured medium were collected for performing the analysis of SEAP activity. The cells were washed with 1×PBS once immediately, and the MTT assay was performed to compare the compounds with the relative toxicity or the influence to the proliferation and activity.
(§1) The cellular medium after the cellular incubation was transferred into the eppondorf tube, and the activity of endogeneous alkaline phosphatase was inactivated at 65° C. for 10 minutes. After centrification, the mixture was obtained by mixing 50 μl of the supernatant with the equal volume of the SEAP buffer. The mixture and the substrate (120 mM of p-nitrophenylphosphate) were preheated at 37° C. for 10 minutes respectively, and the mixture and the substrate were mixed at a ratio of 1:10 and reacted at 37° C. The absorbance of visible light at 405 nm was determined at the appropriate time intervals, and the enzymatic activity of SEAP was represented by the speed of the increasing absorbance at 405 nm.

hTERT expression [2] = test: SEAP assay, H1299/PhTERT-driven SEAP system; type: cell-based, human; settings: for activity at 1 µM / activity at 10 µM / activity at 100 µM: Homo sapiens, NCI-H1299, H1299, read-out: SEAP (Inhibition μM ± SD); for activity at 1 µM: compound concentration 1 μM; for activity at 10 µM: compound concentration 10 μM; for activity at 100 µM: compound concentration 100 μM
Excerpt: The condition of the cells for selecting the telomerase inhibitor must be the cancer cells with telomerase activity. H1299 is a non-small cell lung cancer cell line with telomerase activity. The hTERT communication gene linked behind PhTERT which is located at the fifth chromosome of H1299 cell can be expressed; however, this expression is hard to detect. Therefore, the plasmid having the SEAP communication gene linked behind PhTERT was transfected into H1299 cells. Under the identical condition, after PhTERT was activated, the SEAP communication gene linked behind the plasmid was also activated. This gene could be detected by this analytic method while expressing.
If additionally added reagent can inhibit PhTERT, the linked SEAP communication gene will not be expressed, and the hTERT communication gene linked behind PhTERT at the fifth chromosome will not be expressed. […]
as §1
The selection of telomerase inhibitors of the anthraquinone compounds provided in the present invention was performed by the H1299/PhTERT-driven SEAP system. SEAP is the communication gene in this drug selection model. The SEAP inhibition was shown as follows. The quantitative cellular medium obtained after the 24-hour drug-treatment and the identical inactivation was reacted with the quantitative SEAP substrate, and the absorbance at 405 nm was detected for 5 time intervals. Subsequently, the linear slope of absorbance to the measuring time was calculated, and the variance of absorbance at 405 nm per minute was represented and compared with the SEAP-producing result of drug-untreated H1299 cells. In addition, the influence of the cell-treated drug solution to the cellular proliferation and the drug toxicity to the cells were considered, and the cellular growth was evaluated by the MTT assay. The drug-treated cells were analyzed by the SEAP assay and the data analysis of MTT assay at the same time. Both results were compared so as to delete the influence of cell number or the activity to SEAP, and the dose-dependent phenomenon could be anticipated in the range of drug concentration designed by the laboratory.
In the preliminary selection, the highest concentration was 1000 μM, and 10-fold serial dilutions were done. Therefore, the final concentrations for treating cells were 1 μM, 10 μM and 100 μM, and the drug concentrations were repeated for 5 times. Since the chemically-synthetic drugs have colors thereon, the SEAP value of drug-treatment without cells was also determined to be the background value which was deducted while treating with the drugs. The candidate drug for inhibiting telomerase on the hTERT gene expression level was evaluated and anticipated.

| melting point | SMILES | activity at 1 µM (hTERT expression [1]) | activity at 10 µM (hTERT expression [1]) | activity at 100 µM (hTERT expression [1]) | activity at 1 µM (hTERT expression [2]) | activity at 10 µM (hTERT expression [2]) | activity at 100 µM (hTERT expression [2]) | SEAP (telomerase inhibition) (hTERT expression [2]; low concentration (1 μM)) |
| --- | --- | --- | --- | --- | --- | --- | --- | --- |
| 224 °C | O=C(Cc1ccccc1)Nc1ccc2c(c1)C(=O)c1cc(NC(=O)Cc3ccccc3)ccc1C2=O [Compound 30, 2,7-Bis(phenylacetamido)anthraquinone] | 85 ± 8% | 79 ± 6% | 40 ± 15% | 97 ± 18% | 91 ± 21% | 80 ± 17% | 70±6% |
| 268 °C | O=C(CCc1ccccc1)Nc1ccc2c(c1)C(=O)c1cc(NC(=O)CCc3ccccc3)ccc1C2=O [Compound 31, 2,7-Bis(phenylpropionamido)anthraquinone] | 74 ± 29% | 92 ± 45% | 43 ± 75% | 89 ± 23% | 79 ± 8% | 61 ± 13% |  |
| 269 °C | O=C1c2ccc(NC(=O)C3CCCCC3)cc2C(=O)c2cc(NC(=O)C3CCCCC3)ccc21 [Compound 34, 2,7-Bis(cyclohexanecarbonamido)anthraquinone] | 14 ± 67% | 14 ± 53% | 22 ± 7% | 96 ± 5% | 93 ± 3% | 80 ± 2% |  |
